From paper PMC12028158, “Synthesis and In Vitro Evaluation of the Anticancer Effect of Novel Phosphonium Vindoline Derivatives” (International Journal of Molecular Sciences, 2025)
Like-named read-outs stand apart in the source and are kept apart here.

What was measured:
Format in all cases: cell-based
[1] = system: HL-60(TB); assay: NCI60 five-dose screen; details: Homo sapiens
[2] = system: RPMI-8226; assay: NCI60 five-dose screen; details: Homo sapiens
[3] = system: EKVX; assay: NCI60 five-dose screen; details: Homo sapiens
[4] = system: HOP-92; assay: NCI60 five-dose screen; details: Homo sapiens
[5] = system: NCI-H23; assay: NCI60 five-dose screen; details: Homo sapiens
[6] = system: NCI-H460; assay: NCI60 five-dose screen; details: Homo sapiens
[7] = system: KM12; assay: NCI60 five-dose screen; details: Homo sapiens
[8] = system: SF-295; assay: NCI60 five-dose screen; details: Homo sapiens
[9] = system: SF-539; assay: NCI60 five-dose screen; details: Homo sapiens
[10] = system: SNB-19; assay: NCI60 five-dose screen; details: Homo sapiens
[11] = system: SK-MEL-28; assay: NCI60 five-dose screen; details: Homo sapiens
[12] = system: UACC-257; assay: NCI60 five-dose screen; details: Homo sapiens
[13] = system: OVCAR-3; assay: NCI60 five-dose screen; details: Homo sapiens
[14] = system: OVCAR-8; assay: NCI60 five-dose screen; details: Homo sapiens
[15] = system: 786-0; assay: NCI60 five-dose screen; details: Homo sapiens
[16] = system: A498; assay: NCI60 five-dose screen; details: Homo sapiens
[17] = system: RXF 393; assay: NCI60 five-dose screen; details: Homo sapiens
[18] = system: TK-10; assay: NCI60 five-dose screen; details: Homo sapiens
[19] = system: PC-3; assay: NCI60 five-dose screen; details: Homo sapiens
[20] = system: DU-145; assay: NCI60 five-dose screen; details: Homo sapiens
[21] = system: MCF7; assay: NCI60 five-dose screen; details: Homo sapiens
[22] = system: MDA-MB-468; assay: NCI60 five-dose screen; details: Homo sapiens
[23] = system: Non-small Cell Lung Cancer panel; assay: NCI60 five-dose screen, panel mean; details: Homo sapiens, read-out: Mean GI50
[24] = system: Melanoma panel; assay: NCI60 five-dose screen, panel mean; details: Homo sapiens, read-out: Mean GI50
[25] = system: Prostate Cancer panel; assay: NCI60 five-dose screen, panel mean; details: Homo sapiens, read-out: Mean GI50
[26] = system: RPMI-8226; assay: NCI60 one-dose screen; details: Homo sapiens
[27] = system: SR; assay: NCI60 one-dose screen; details: Homo sapiens, read-out: Growth percent
[28] = system: HOP-62; assay: NCI60 one-dose screen; details: Homo sapiens
[29] = system: NCI-H226; assay: NCI60 one-dose screen; details: Homo sapiens
[30] = system: NCI-H460; assay: NCI60 one-dose screen; details: Homo sapiens
[31] = system: COLO 205; assay: NCI60 one-dose screen; details: Homo sapiens
[32] = system: HT29; assay: NCI60 one-dose screen; details: Homo sapiens
[33] = system: KM12; assay: NCI60 one-dose screen; details: Homo sapiens
[34] = system: SW-620; assay: NCI60 one-dose screen; details: Homo sapiens
[35] = system: SF-268; assay: NCI60 one-dose screen; details: Homo sapiens
[36] = system: SF-539; assay: NCI60 one-dose screen; details: Homo sapiens
[37] = system: SNB-19; assay: NCI60 one-dose screen; details: Homo sapiens
[38] = system: U251; assay: NCI60 one-dose screen; details: Homo sapiens
[39] = system: LOX IMVI; assay: NCI60 one-dose screen; details: Homo sapiens, read-out: Growth percent
[40] = system: MALME-3M; assay: NCI60 one-dose screen; details: Homo sapiens, read-out: Growth percent
[41] = system: MDA-MB-435; assay: NCI60 one-dose screen; details: Homo sapiens
[42] = system: SK-MEL-2; assay: NCI60 one-dose screen; details: Homo sapiens
[43] = system: SK-MEL-5; assay: NCI60 one-dose screen; details: Homo sapiens
[44] = system: SN12C; assay: NCI60 one-dose screen; details: Homo sapiens, read-out: Growth percent
[45] = system: UO-31; assay: NCI60 one-dose screen; details: Homo sapiens
[46] = system: MCF7; assay: NCI60 one-dose screen; details: Homo sapiens

CCC12C=CCN3CCC4(c5ccc(OC)cc5N(C)C4C(O)(C(=O)OC)C1OC(=O)CCC[P+](c1ccc(C)cc1)(c1ccc(C)cc1)c1ccc(C)cc1)C32 (centres unmarked) [9a]
GI50 ([1]; HL-60): 162 nM | GI50 ([2]; RPMI-8226): 186 nM | GI50 [3]: 534 nM | GI50 ([4]; HOP-92): 187 nM | GI50 ([5]; NCI-H23): 303 nM | GI50 ([6]; NCI-H460): 327 nM | GI50 ([7]; KM12): 376 nM | GI50 ([8]; SF-295): 521 nM | GI50 ([9]; SF-539): 338 nM | GI50 ([10]; SNB-19): 306 nM | GI50 ([11]; SK-MEL-28): 361 nM | GI50 ([12]; UACC-257): 272 nM | GI50 ([13]; OVCAR-3): 374 nM | GI50 ([14]; OVCAR-8): 372 nM | GI50 ([15]; 786-0): 1060 nM | GI50 ([16]; A498): 1630 nM | GI50 ([17]; RXF 393): 279 nM | GI50 ([18]; TK-10): 600 nM | GI50 ([19]; PC-3): 310 nM | GI50 ([20]; DU-145): 457 nM | GI50 ([21]; MCF7): 281 nM | GI50 ([22]; MDA-MB-468): 165 nM | GI50 [23]: 410 nM | GI50 [24]: 350 nM | GI50 [25]: 380 nM | activity at 10 µM ([26]; RPMI-8226, read-out: Growth percent): -56.3% | activity at 10 µM [27]: 5.74% | activity at 10 µM ([28]; HOP-62, read-out: Growth percent): -81.6% | activity at 10 µM ([29]; NCI-H226, read-out: Growth percent): -77.4% | activity at 10 µM ([30]; NCI-H460, read-out: Growth percent): -85.2% | activity at 10 µM ([31]; COLO 205, read-out: Growth percent): -50.2% | activity at 10 µM ([32]; HT-29, read-out: Growth percent): -80.7% | activity at 10 µM ([33]; KM12, read-out: Growth percent): -76.1% | activity at 10 µM ([34]; SW-620, read-out: Growth percent): -85.2% | activity at 10 µM ([35]; SF-268, read-out: Growth percent): -46.3% | activity at 10 µM ([36]; SF-539, read-out: Growth percent): -96.6% | activity at 10 µM ([37]; SNB-19, read-out: Growth percent): -97.3% | activity at 10 µM ([38]; U-251, read-out: Growth percent): -91.2% | activity at 10 µM [39]: -89.3% | activity at 10 µM ([40]; Malme-3M): -94.4% | activity at 10 µM ([41]; MDA-MB-435, read-out: Growth percent): -57.5% | activity at 10 µM ([42]; SK-MEL-2, read-out: Growth percent): -85.4% | activity at 10 µM ([43]; SK-MEL-5, read-out: Growth percent): -99.4% | activity at 10 µM [44]: -88.1% | activity at 10 µM ([45]; UO-31, read-out: Growth percent): -97.4% | activity at 10 µM ([46]; MCF7, read-out: Growth percent): -76.3%

CC[C@]12C=CCN3CC[C@@]4(c5ccc(OC)cc5N(C)[C@H]4[C@@](O)(C(=O)OC)[C@@H]1OC(=O)CCC[P+](c1ccc(OC)cc1)(c1ccc(OC)cc1)c1ccc(OC)cc1)[C@@H]32 [9b]
GI50 ([1]; HL-60, HL-60(TB), Leukemia, five-dose, read-out: GI50): 256 nM | GI50 ([2]; RPMI-8226, Leukemia, five-dose, read-out: GI50): 275 nM | GI50 ([3]; Non-small Cell Lung Cancer, five-dose, read-out: GI50): 1060 nM | GI50 ([4]; HOP-92, Non-small Cell Lung Cancer, five-dose, read-out: GI50): 344 nM | GI50 ([5]; NCI-H23, Non-small Cell Lung Cancer, five-dose, read-out: GI50): 671 nM | GI50 ([6]; NCI-H460, Non-small Cell Lung Cancer, five-dose, read-out: GI50): 666 nM | GI50 ([7]; KM12, KM12, Colon Cancer, five-dose, read-out: GI50): 628 nM | GI50 ([8]; SF-295, CNS Cancer, five-dose, read-out: GI50): 1920 nM | GI50 ([9]; SF-539, CNS Cancer, five-dose, read-out: GI50): 1230 nM | GI50 ([10]; SNB-19, SNB-19, CNS Cancer, five-dose, read-out: GI50): 391 nM | GI50 ([11]; SK-MEL-28, Melanoma, five-dose, read-out: GI50): 453 nM | GI50 ([12]; UACC-257, UACC-257, Melanoma, five-dose, read-out: GI50): 646 nM | GI50 ([13]; OVCAR-3, Ovarian Cancer, five-dose, read-out: GI50): 624 nM | GI50 ([14]; OVCAR-8, Ovarian Cancer, five-dose, read-out: GI50): 1410 nM | GI50 ([15]; 786-0, Renal Cancer, five-dose, read-out: GI50): 1930 nM | GI50 ([16]; A498, Renal Cancer, five-dose, read-out: GI50): 2340 nM | GI50 ([17]; RXF 393, Renal Cancer, five-dose, read-out: GI50): 482 nM | GI50 ([18]; TK-10, Renal Cancer, five-dose, read-out: GI50): 1510 nM | GI50 ([19]; PC-3, Prostate Cancer, five-dose, read-out: GI50): 470 nM | GI50 ([20]; DU-145, Prostate Cancer, five-dose, read-out: GI50): 955 nM | GI50 ([21]; MCF7, MCF7, Breast Cancer, five-dose, read-out: GI50): 383 nM | GI50 ([22]; MDA-MB-468, MDA-MB-468, Breast Cancer, five-dose, read-out: GI50): 241 nM | GI50 ([23]; mean over Non-small Cell Lung Cancer panel): 1090 nM | GI50 ([24]; mean over Melanoma panel): 760 nM | GI50 ([25]; mean over Prostate Cancer panel): 710 nM | activity at 10 µM ([26]; RPMI-8226, 10 μM, one-dose, read-out: Growth percent): -45.5% | activity at 10 µM ([27]; 10 μM, one-dose): 15% | activity at 10 µM ([28]; HOP-62, 10 μM, one-dose, read-out: Growth percent): -81.5% | activity at 10 µM ([29]; NCI-H226, 10 μM, one-dose, read-out: Growth percent): -80.3% | activity at 10 µM ([30]; NCI-H460, 10 μM, one-dose, read-out: Growth percent): -85.2% | activity at 10 µM ([31]; COLO 205, 10 μM, one-dose, read-out: Growth percent): -64.4% | activity at 10 µM ([32]; HT-29, HT29, 10 μM, one-dose, read-out: Growth percent): -84.3% | activity at 10 µM ([33]; KM12, 10 μM, one-dose, read-out: Growth percent): -65.3% | activity at 10 µM ([34]; SW-620, 10 μM, one-dose, read-out: Growth percent): -82.4% | activity at 10 µM ([35]; SF-268, 10 μM, one-dose, read-out: Growth percent): -34.3% | activity at 10 µM ([36]; SF-539, 10 μM, one-dose, read-out: Growth percent): -98.9% | activity at 10 µM ([37]; SNB-19, 10 μM, one-dose, read-out: Growth percent): -96.7% | activity at 10 µM ([38]; U-251, U251, 10 μM, one-dose, read-out: Growth percent): -93.7% | activity at 10 µM ([39]; 10 μM, one-dose): -96.4% | activity at 10 µM ([40]; MALME-3M, 10 μM, one-dose): -97.8% | activity at 10 µM ([41]; MDA-MB-435, 10 μM, one-dose, read-out: Growth percent): -76.9% | activity at 10 µM ([42]; SK-MEL-2, 10 μM, one-dose, read-out: Growth percent): -90.6% | activity at 10 µM ([43]; SK-MEL-5, 10 μM, one-dose, read-out: Growth percent): -99.6% | activity at 10 µM ([44]; 10 μM, one-dose): -93.4% | activity at 10 µM ([45]; UO-31, 10 μM, one-dose, read-out: Growth percent): -56.8% | activity at 10 µM ([46]; MCF7, 10 μM, one-dose, read-out: Growth percent): -83%
